Reference: ChEMBL document CHEMBL4043164, “Design, synthesis and biological evaluation of novel antitumor spirotetrahydrothiopyran-oxindole derivatives as potent p53-MDM2 inhibitors” (Bioorg Med Chem, 2017)

Tests used:
A549 = assay: Cytotoxicity against human A549 cells assessed as reduction in cell viability incubated for 24 hrs by CCK8 assay; conditions: A549, 24 h
MCF7 = assay: Cytotoxicity against human MCF7 cells assessed as reduction in cell viability incubated for 24 hrs by CCK8 assay; conditions: MCF7, 24 h
HCT-116 = assay: Cytotoxicity against human HCT116 cells assessed as reduction in cell viability incubated for 24 hrs by CCK8 assay; conditions: HCT-116, 24 h

| SMILES | IC50 (A549) | IC50 (MCF7) | IC50 (HCT-116) |
| --- | --- | --- | --- |
| CCN(CC)c1ccc(N2C[C@H]3[C@@H](CS[C@]4(C(=O)Nc5cccc(Br)c54)[C@@H]3c3ccc(Br)cc3)CC2=O)cc1 | 2.9 µM | 1.8 µM | 2.4 µM |
| O=C1C[C@@H]2CS[C@]3(C(=O)Nc4cccc(Br)c43)[C@H](c3ccc(Br)cc3)[C@H]2CN1c1ccc(Cl)cc1 | 4.8 µM | 4.2 µM | 8 µM |
| O=C1C[C@@H]2CS[C@]3(C(=O)Nc4cccc(Br)c43)[C@H](c3ccc(Br)cc3)[C@H]2CN1c1ccc(N2CCOCC2)cc1 | 2.6 µM | 2.4 µM | 4.3 µM |
| O=C1C[C@@H]2CS[C@]3(C(=O)Nc4cccc(Br)c43)[C@H](c3ccc(Br)cc3)[C@H]2CN1c1ccc(F)cc1 | 4.4 µM | 4 µM | 10.5 µM |
| O=C1C[C@@H]2CS[C@]3(C(=O)Nc4cccc(Br)c43)[C@H](c3ccc(Br)cc3)[C@H]2CN1c1ccccc1 | 4.2 µM | 4 µM | 8.6 µM |
| CN1CCN(c2ccc(N3C[C@H]4[C@@H](CS[C@]5(C(=O)Nc6cccc(Br)c65)[C@@H]4c4ccc(Br)cc4)CC3=O)cc2)CC1 | 6.3 µM | 5.9 µM | 8.8 µM |
| CCOc1cccc(N2C[C@H]3[C@@H](CS[C@]4(C(=O)Nc5cccc(Br)c54)[C@@H]3c3ccc(Br)cc3)CC2=O)c1 | 4.5 µM | 3.6 µM | 8.5 µM |
| COc1ccc(C2=N[C@H](c3ccc(Cl)cc3)[C@H](c3ccc(Cl)cc3)N2C(=O)N2CCNC(=O)C2)c(OC(C)C)c1 | 10 µM | 14.9 µM | 28.4 µM |
| COC(=O)C[C@@H]1CS[C@]2(C(=O)Nc3cccc(Br)c32)[C@H](c2ccc(Br)cc2)[C@H]1CNc1cccc(F)c1 | 3.5 µM | 2.8 µM | 8.6 µM |
| O=C1C[C@@H]2CS[C@]3(C(=O)Nc4cccc(Br)c43)[C@H](c3ccc(Br)cc3)[C@H]2CN1c1ccccc1F | 2.3 µM | 4.6 µM | 9.3 µM |
| O=C1Nc2cccc(Br)c2[C@@]12SC[C@@H](CCO)[C@H](CO)[C@H]2c1ccc(Br)cc1 | 16.5 µM | 13.5 µM | 19.1 µM |
| O=C1C[C@@H]2CS[C@]3(C(=O)Nc4cccc(Br)c43)[C@H](c3ccc(Br)cc3)[C@H]2CN1c1ccc(F)cc1F | 2.5 µM | 4.4 µM | 9.8 µM |
| CCOc1ccc(N2C[C@H]3[C@@H](CS[C@]4(C(=O)Nc5cccc(Br)c54)[C@@H]3c3ccc(Br)cc3)CC2=O)cc1 | 2.6 µM | 3.2 µM | 10.4 µM |
| Cc1ccc(N2C[C@H]3[C@@H](CS[C@]4(C(=O)Nc5cccc(Br)c54)[C@@H]3c3ccc(Br)cc3)CC2=O)cc1 | 4.6 µM | 3 µM | 5.1 µM |
| O=C1C[C@@H]2CS[C@]3(C(=O)Nc4cccc(Br)c43)[C@H](c3ccc(Br)cc3)[C@H]2CN1c1ccc(-c2ccccc2)cc1 | 4.1 µM | 6.9 µM | 5.6 µM |
| COC(=O)C[C@@H]1CS[C@]2(C(=O)Nc3cccc(Br)c32)[C@H](c2ccc(Br)cc2)[C@H]1CNc1ccccc1F | 4.2 µM | 3.6 µM | 10.5 µM |
| COc1ccc(N2C[C@H]3[C@@H](CS[C@]4(C(=O)Nc5cccc(Br)c54)[C@@H]3c3ccc(Br)cc3)CC2=O)cc1 | 4.3 µM | 3 µM | 8.3 µM |
| COC(=O)C[C@@H]1CS[C@]2(C(=O)Nc3cccc(Br)c32)[C@H](c2ccc(Br)cc2)[C@H]1C=O | 11.2 µM | 8.5 µM | 17.3 µM |
| O=C1C[C@@H]2CS[C@]3(C(=O)Nc4cccc(Br)c43)[C@H](c3ccc(Br)cc3)[C@H]2CN1c1cccc(F)c1 | 3.5 µM | 3.8 µM | 9.5 µM |
